Experimental data taken from patent publication US7754200B2, “Phosphate transport inhibitors” (Genzyme Corporation, priority 2002, dated 2010).

Tested on: phosphate uptake by rabbit intestinal Brush Border Membrane Vesicles (BBMV)
Test: 33PO4 Uptake in Rabbit Intestinal BBMV High Throughput Screening (HTS) assay
Assay type: biochemical
Conditions: inhibition of 33PO4 uptake, 15 minutes
Source text: The activity of compounds of the present invention can be assessed using suitable assays, such as the ^33PO4 Uptake In Rabbit Intestinal BBMV High Throughput Screening (HTS) assay, as described in the Example 28. Compounds of the present invention can also be identified by virtue of their ability to inhibit the absorption of phosphate in vivo, for example, in the gastrointestinal tract of a laboratory animal.
The following example outlines the procedures required for in vitro measurement of the inhibition of phosphate uptake by rabbit intestinal Brush Border Membrane Vesicles (BBMV).
Rabbit Intestinal Brush Border Membrane Vesicles (BBMV) were isolated from mucosal scrapings of the upper small intestine (duodenum) of male New Zealand White rabbits. The scrapings were divided into 2 g aliquots in cryopreservation vials, frozen in liquid nitrogen, and stored at −80° C.
The following procedure was performed for each 2 g sample of BBMV mucosal scraping. Buffer volumes and container sizes were adjusted appropriately for the number of 2 g samples used. The entire preparation was performed on ice, unless otherwise stated.
Mucosal scrapings (2 g per tube) were thawed in a 37° C. water bath for 3 minutes and then placed on ice. The scrapings were suspended with a total of 7.5 mL of 300 MET, and transferred to a 250 mL Coming tube on ice. To the suspension was added 30 mL cold (4° C.) deionized water (dH2O). The suspension was homogenized with a tissue homogenizer (Polytron) on high speed for two minutes. A stir bar and MgCl2 (81.3 mg) were added. The suspension was mixed well by inverting the closed tube. The suspension was stirred on ice, ensuring that a good vortex is achieved with the stir bar, for 40 minutes. The suspension was transferred to a chilled centrifuge tube and spun at 4000×g for 15 minutes. The supernatant was transferred to a new chilled centrifuge tube and spun at 32000×g for 30 minutes. The supernatant was discarded and the pellet was re-suspended with 34 mL cold 60 MET. The suspension was homogenized with a Dounce homogenizer with 8 strokes. The suspension was transferred to a fresh 250 mL Coming tube. A stir bar and 69.1 mg MgCl2 were added. The suspension was stirred well on ice for 10 minutes. The suspension was transferred to a chilled centrifuge tube and spun at 4000×g for 15 minutes. The supernatant was transferred to a new chilled centrifuge tube and spun at 32000×g for 30 minutes. The supernatant was discarded. At this stage, the preparation could be continued or this pellet (P4) could be frozen in liquid nitrogen and stored at −80° C. When needed, this pellet could be allowed to thaw at room temperature for 5 minutes. Continuing the preparation, the pellet was re-suspended with 34 mL cold 280 MH. The suspension was homogenized in a Dounce homogenize with 8 strokes. The suspension was transferred to a new chilled centrifuge tube and spun at 32000×g for 30 minutes. The supernatant was discarded. To the pellet was added 500 μL 280 MH and the pellet was re-suspended very carefully with a 1 mL tuberculin syringe with a 25-gauge needle with care not to create bubbles. Once the entire pellet was suspended, the suspension was transferred to a chilled 1.5 mL microfuge tube. The suspension was evenly dispersed by bringing the suspension up into the syringe through the 25-gauge needle, and back out again eight times with care not to create bubbles. The total protein concentration was determined by performing a Bradford Protein Assay. Using that value, the BBMV were diluted with 280 MH to reach approximately 0.5-2.0 mg/mL. The solution was used as soon as possible for uptake studies.
^33PO4 Uptake in Rabbit Intestinal BBMV
The following experiment was performed using a Beckman Multimek 96-tip robotic pipettor. The following outlines the preparation required to screen one 96-well plate of compounds. However, multiple plates could be screened in one experiment. […]

Row | SMILES | IC50 [µM]
1 | O=P(O)(O)CP(=O)(O)CCCCCCCCCCCNS(=O)(=O)c1ccc(OC(F)(F)F)cc1 [Compound 14] | 100 to 300
2 | C=CCCCCCCCCCP(=O)(O)CP(=O)(O)CP(=O)(O)O [Compound 16] | 100 to 300
3 | C=CCCCP(=O)(O)C(CCCCCCCCCC)P(=O)(O)O (centres unmarked) [Compound 17] | 300 to 700
4 | CCCCCCCCCC(CCCCCN)P(=O)(O)CP(=O)(O)O (centres unmarked) [Compound 18] | 300 to 700
5 | O=P(O)(O)CP(=O)(O)CCCC1CCCCC1 [Compound 19] | 300 to 700
6 | C=CCCCCCCCCCP(=O)(O)C(CCCCC)P(=O)(O)O (centres unmarked) [Compound 21] | 700 to 1000
7 | O=P(O)(O)CP(=O)(O)CCCCCCCCCC1CO1 (centres unmarked) [Compound 22] | 700 to 1000
8 | C=CCCCCCCCCCP(=O)(O)C(CCCCC)P(=O)(O)O (centres unmarked) [Compound 23] | 700 to 1000
9 | CCC(=O)NCCCCCCCCCCCP(=O)(O)CP(=O)(O)O [Compound 24] | 700 to 1000
10 | O=P(O)(O)CP(=O)(O)CCCCCCCCCCCO [Compound 25] | 700 to 1000
11 | CCCCCCCCCCC(P(C)(=O)O)P(=O)(O)O (centres unmarked) [Compound 26] | 700 to 1000
12 | NCCCCCCCCCCCP(=O)(O)CP(=O)(O)O [Compound 27] | 1000 to 1600
13 | CCCCCCCCCC(CCCCCNC(=O)CC)P(=O)(O)CP(=O)(O)O (centres unmarked) [Compound 28] | 1000 to 1600
14 | O=P(O)(O)CP(=O)(O)CCCCCBr [Compound 29] | 1000 to 1600
15 | O=P(O)(O)CP(=O)(O)C/C=C/c1ccccc1 [Compound 30] | 1000 to 1600
16 | C=CCCCP(=O)(O)C(Cc1ccc(-c2ccccc2)cc1)P(=O)(O)O (centres unmarked) [Compound 32] | 1000 to 1600
17 | O=P(O)(O)CP(=O)(O)C1CCCCC1 [Compound 33] | > 1600
18 | C=CCCCP(=O)(O)CP(=O)(O)O [Compound 34] | > 1600
19 | C=CC(=O)NCCCCCCCCCCCP(=O)(O)CP(=O)(O)O [Compound 35] | > 1600
20 | C=CCCCP(=O)(O)C(CCCC1CCCCC1)P(=O)(O)O (centres unmarked) [Compound 36] | > 1600

Results, then the compound that gave them:

Row | IC50 [µM] | SMILES
21 | < 100 | CCCCCCCCCCP(=O)(O)CP(=O)(O)O [Compound 1]
22 | < 100 | C=CCCCCCCCCCP(=O)(O)C(F)(F)P(=O)(O)O [Compound 2]
23 | < 100 | C=CCCCCCCCCCP(=O)(O)C(F)P(=O)(O)O (centres unmarked) [Compound 3]
24 | < 100 | C=CCCCCCCCCCP(=O)(O)CP(=O)(O)O [Compound 4]
25 | < 100 | O=P(O)(O)CP(=O)(O)c1ccc(C(F)(F)F)cc1 [Compound 5]
26 | < 100 | O=P(O)(O)CP(=O)(O)CCCCCCCCCC(Br)CBr (centres unmarked) [Compound 6]
27 | < 100 | O=C1c2ccccc2C(=O)N1CCCCCCCCCCCP(=O)(O)CP(=O)(O)O [Compound 8]
28 | 100 to 300 | O=C(NCCCCCCCCCCCP(=O)(O)CP(=O)(O)O)c1ccc(OC(F)(F)F)cc1 [Compound 10]
29 | 100 to 300 | C=CCCC(CCCCCCCCCC)P(=O)(O)CP(=O)(O)O (centres unmarked) [Compound 11]
